We go through three compounds from paper PMC3775124 (Nuclear Medicine and Biology, 2013).

One series concerns the target human BCRP (Homo sapiens, UniProt Q9UNQ0). To be noted: [^14C]PhIP 2 μM; n = 1. The procedure: (§1) For the in vitro transport studies LLC-PK1 cells transduced with human MDR1 or murine Mdr1a and respective wild-type LLC cells were used. Additionally, Madin-Darby canine kidney type II (MDCK-II) cells transduced with murine Bcrp1 or human BCRP or human MRP1 and respective wild-type MDCK-II cells were used. The cell lines were a kind gift from Piet Borst and Alfred Schinkel (The Netherlands Cancer Institute, Amsterdam, the Netherlands). Culturing of the cells was performed as described earlier. MDR1- and Mdr1a-overexpressing LLC cells were regularly tested for vincristine sulfate resistance (0.64 μM) as described before. The MDCK-II cells transduced with Bcrp1 or BCRP were regularly tested for mitoxantrone resistance (20 μM).
(§2) CETA was performed in triplicate as described previously. With a density of 0.3 × 10^6 cells/cm^2 LLC cells were seeded on transparent polyester membrane filters (Transwell-Clear®, 6-well, 24-mm diameter, 0.4-μm pore size, Corning Costar Corporation, Cambridge, MA, USA). […] Transport experiments were performed 5–7 days after the cells reached 100% confluence. […] Control CETA was performed with calcein AM (1 μM) for MRP1 [26] and [^14C]PhIP (2 μM) for Bcrp1/BCRP. The membrane integrity was determined by mannitol diffusion and transepithelial electrical resistance (TEER), with criteria for exclusion described earlier.

The target of the next series is murine Bcrp1 (Mus musculus, UniProt Q7TMS5). To be noted: [^14C]PhIP 2 μM; n = 1. The procedure:
as §1, §2

A further series concerns the target T1, murine Mdr1a (Mus musculus, UniProt P21447).
T1 construct: host or cells: LLC-PK1 (porcine kidney) cells
The series can be described thus: CETA in LLC cells transduced with murine Mdr1a. Type of series: in vitro ADME. The following applies: tariquidar 0.5 μM; Mdr1a-overexpressing LLC cells.

The test system of another series is cerebral Pgp. On the set-up: method as in PMID 20016890. To be noted: tariquidar 15 mg/kg; rats; cited from earlier work.
Details of series [1]: method as in PMID 19910428. To be noted: cited from earlier work.
Another series has as its target human MRP1 (Homo sapiens, UniProt P33527). The series can be described thus: CETA in MDCK cells transduced with human MRP1. To be noted: calcein AM 1 μM; n = 1. The procedure:
as §1, §2

T1 sequence (P21447 whole entry): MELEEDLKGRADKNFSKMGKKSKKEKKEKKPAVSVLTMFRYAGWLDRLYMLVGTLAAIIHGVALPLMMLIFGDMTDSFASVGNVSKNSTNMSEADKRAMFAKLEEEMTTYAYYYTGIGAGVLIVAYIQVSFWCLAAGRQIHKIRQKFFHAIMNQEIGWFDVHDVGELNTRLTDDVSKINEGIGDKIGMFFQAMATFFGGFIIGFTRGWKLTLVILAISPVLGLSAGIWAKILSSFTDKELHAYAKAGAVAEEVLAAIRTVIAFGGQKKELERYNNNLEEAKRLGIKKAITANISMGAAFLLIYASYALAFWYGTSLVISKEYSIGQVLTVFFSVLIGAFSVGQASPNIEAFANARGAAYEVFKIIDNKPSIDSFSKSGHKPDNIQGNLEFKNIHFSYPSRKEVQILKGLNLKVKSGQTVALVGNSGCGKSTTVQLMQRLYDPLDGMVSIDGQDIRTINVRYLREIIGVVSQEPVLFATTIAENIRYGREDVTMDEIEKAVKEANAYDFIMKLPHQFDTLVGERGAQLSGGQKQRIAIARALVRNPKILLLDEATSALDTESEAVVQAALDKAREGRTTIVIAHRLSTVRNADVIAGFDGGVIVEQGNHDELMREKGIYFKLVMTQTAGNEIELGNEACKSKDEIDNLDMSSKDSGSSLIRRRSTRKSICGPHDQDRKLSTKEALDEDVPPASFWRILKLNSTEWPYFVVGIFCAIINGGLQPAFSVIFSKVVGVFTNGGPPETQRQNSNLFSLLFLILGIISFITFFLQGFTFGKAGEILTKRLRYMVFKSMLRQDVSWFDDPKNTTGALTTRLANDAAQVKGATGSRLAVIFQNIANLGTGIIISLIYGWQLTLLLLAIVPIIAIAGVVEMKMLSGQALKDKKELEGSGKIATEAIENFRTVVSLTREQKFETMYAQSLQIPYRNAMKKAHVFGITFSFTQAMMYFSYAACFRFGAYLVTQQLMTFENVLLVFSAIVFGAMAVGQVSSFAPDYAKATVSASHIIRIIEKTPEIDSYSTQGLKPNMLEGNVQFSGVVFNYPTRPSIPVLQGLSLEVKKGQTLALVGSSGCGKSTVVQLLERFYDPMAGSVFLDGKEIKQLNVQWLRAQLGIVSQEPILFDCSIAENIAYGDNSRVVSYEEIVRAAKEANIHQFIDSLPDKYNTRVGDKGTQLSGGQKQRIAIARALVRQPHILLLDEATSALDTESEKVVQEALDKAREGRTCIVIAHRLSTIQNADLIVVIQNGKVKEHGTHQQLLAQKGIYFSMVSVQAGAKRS
Chain of murine Bcrp1 (Q7TMS5 whole entry): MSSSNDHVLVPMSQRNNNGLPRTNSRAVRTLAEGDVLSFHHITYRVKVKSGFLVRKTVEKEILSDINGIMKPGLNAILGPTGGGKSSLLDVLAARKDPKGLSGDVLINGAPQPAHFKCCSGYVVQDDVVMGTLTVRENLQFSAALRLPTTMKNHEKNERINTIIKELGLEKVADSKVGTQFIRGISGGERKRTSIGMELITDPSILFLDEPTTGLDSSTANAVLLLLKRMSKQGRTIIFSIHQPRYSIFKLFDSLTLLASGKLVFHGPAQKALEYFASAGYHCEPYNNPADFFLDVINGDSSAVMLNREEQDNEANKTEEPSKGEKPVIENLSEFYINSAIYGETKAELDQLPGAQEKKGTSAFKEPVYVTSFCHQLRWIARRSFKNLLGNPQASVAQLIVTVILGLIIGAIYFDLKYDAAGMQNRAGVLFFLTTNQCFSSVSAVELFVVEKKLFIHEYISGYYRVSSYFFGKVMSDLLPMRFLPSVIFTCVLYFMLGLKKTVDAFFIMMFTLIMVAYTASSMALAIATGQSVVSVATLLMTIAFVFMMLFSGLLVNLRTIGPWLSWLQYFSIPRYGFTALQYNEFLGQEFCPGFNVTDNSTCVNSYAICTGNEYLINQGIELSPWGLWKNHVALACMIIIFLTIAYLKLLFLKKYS
Chain of human MRP1 (P33527 whole entry): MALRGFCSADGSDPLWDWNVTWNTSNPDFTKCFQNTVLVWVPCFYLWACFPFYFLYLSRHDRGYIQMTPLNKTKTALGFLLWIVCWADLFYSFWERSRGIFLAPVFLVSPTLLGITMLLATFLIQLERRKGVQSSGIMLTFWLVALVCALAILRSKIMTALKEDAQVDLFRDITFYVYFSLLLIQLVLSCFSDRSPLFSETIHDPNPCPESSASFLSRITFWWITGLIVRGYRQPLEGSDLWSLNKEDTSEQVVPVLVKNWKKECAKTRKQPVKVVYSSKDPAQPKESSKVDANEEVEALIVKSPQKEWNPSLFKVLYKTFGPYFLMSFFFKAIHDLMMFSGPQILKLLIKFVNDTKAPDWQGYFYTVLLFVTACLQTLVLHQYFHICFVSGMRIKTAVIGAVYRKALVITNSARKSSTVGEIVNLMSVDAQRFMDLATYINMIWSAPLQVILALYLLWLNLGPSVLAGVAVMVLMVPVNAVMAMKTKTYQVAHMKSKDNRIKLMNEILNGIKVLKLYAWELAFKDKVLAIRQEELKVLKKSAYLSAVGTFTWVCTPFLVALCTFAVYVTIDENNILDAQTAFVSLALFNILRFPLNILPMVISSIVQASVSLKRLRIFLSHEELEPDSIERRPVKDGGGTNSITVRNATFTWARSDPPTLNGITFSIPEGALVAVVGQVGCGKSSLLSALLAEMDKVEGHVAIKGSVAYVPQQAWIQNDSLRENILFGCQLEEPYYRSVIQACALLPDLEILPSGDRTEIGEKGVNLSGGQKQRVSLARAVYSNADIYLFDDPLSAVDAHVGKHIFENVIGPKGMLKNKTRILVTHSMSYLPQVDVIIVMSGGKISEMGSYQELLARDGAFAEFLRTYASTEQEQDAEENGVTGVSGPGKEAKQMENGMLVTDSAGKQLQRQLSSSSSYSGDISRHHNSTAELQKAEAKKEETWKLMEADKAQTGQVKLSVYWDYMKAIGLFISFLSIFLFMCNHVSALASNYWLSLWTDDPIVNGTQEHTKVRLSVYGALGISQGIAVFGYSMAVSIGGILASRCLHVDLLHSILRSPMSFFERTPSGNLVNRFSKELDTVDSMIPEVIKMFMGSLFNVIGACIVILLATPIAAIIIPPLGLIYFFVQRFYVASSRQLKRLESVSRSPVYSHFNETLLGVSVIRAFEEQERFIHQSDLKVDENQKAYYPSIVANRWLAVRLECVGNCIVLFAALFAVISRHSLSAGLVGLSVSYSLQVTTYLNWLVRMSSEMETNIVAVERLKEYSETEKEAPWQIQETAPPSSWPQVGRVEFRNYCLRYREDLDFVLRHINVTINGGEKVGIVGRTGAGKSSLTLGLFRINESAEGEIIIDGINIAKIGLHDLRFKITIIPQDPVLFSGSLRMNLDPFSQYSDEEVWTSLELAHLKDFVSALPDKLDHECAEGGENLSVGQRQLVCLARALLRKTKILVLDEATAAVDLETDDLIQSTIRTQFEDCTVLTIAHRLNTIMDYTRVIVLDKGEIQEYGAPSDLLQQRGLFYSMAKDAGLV
Chain of human BCRP (Q9UNQ0 whole entry): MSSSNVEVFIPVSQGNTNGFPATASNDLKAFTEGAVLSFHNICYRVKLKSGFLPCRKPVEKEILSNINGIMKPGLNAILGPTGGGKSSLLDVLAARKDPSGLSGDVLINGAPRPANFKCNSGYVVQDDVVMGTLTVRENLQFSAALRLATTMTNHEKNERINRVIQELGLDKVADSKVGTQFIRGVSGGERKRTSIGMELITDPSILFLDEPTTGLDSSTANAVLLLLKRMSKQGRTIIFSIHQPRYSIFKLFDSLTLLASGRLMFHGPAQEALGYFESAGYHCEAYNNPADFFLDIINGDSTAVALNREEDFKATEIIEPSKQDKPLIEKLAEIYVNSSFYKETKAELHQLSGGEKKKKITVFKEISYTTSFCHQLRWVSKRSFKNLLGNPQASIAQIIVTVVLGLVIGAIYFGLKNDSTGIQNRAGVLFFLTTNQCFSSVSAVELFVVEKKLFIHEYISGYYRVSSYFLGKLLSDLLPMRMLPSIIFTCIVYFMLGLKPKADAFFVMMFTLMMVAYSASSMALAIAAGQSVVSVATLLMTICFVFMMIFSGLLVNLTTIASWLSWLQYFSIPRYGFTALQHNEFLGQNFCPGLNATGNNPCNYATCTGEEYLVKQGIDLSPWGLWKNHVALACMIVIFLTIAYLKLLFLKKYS

As to `Cn1c(N)nc2ncc(-c3ccccc3)cc21` [[^14C]PhIP, [^14C]2-amino-1-methyl-6-phenylimidazo[4,5-b]pyridine], at human BCRP, the “control CETA for BCRP function” value is “functional”. Besides, the “control CETA for Bcrp1 function” value on murine Bcrp1 is “functional”.

In the case of `COc1cc2c(cc1OC)CN(CCc1ccc(NC(=O)c3cc(OC)c(OC)cc3NC(=O)c3cnc4ccccc4c3)cc1)CC2` [tariquidar, Tariquidar dimesylate], at murine Mdr1a, the “inhibition of [^3H]verapamil transport” value was “almost completely inhibited”. Moreover, the “inhibition of cerebral Pgp” value in the series on cerebral Pgp is listed as “complete inhibition”. Further, the “influence on (R)-[^11C]verapamil metabolism and plasma protein binding” value in series [1] is “does not influence”.

Take calcein AM: at human MRP1, the “control CETA for MRP1 function” value is on record as “functional MRP1 was present”.
